Source: patent publication US20230312471A1 (priority 2020, published 2023)
Like-named read-outs stand apart in the source and are kept apart here.

Key:
Experiment in all cases: biochemical
3CL^pro = 3CL^pro (Severe acute respiratory syndrome coronavirus 2, UniProt P0DTD1); type: binding, SARS-CoV-2
PL^pro [1] = molecular target: T1, PL^pro (Severe acute respiratory syndrome coronavirus 2, UniProt P0DTD1); type: binding, SARS-CoV-2
PL^pro [2] = molecular target: T1, PL^pro; type: biochemical, SARS-CoV-2
[3] = read-out: IC50, inhibition of labelling of 3CL^pro by compound of formula (13)

**Q.** How did the IC50 (3CL^pro; [3]) turn out when `O=C(/C=C/c1ccc(O)c2c1[C@H](C(=O)O[C@H](Cc1ccc(O)c(O)c1)C(=O)O)[C@@H](c1ccc(O)c(O)c1)O2)O[C@H](Cc1ccc(O)c(O)c1)C(=O)O` [Compound M26, salvianolic acid B] was run?
**A.** 12 µM

**Q.** What does the source list for `COc1cc(/C=C/C(=O)CC(=O)/C=C/c2ccc(O)c(OC)c2)ccc1O` [Compound M03, curcumin]?
**A.** Inhibition of PL^pro labelling (in words) (PL^pro [1]): almost completely inhibited; Inhibition of enzyme activity of PL^pro (in words) (PL^pro [2]): inhibited enzyme activity

**Q.** How did the IC50 (3CL^pro; [3]) turn out when `O=C(/C=C/c1ccc(O)c2oc(-c3ccc(O)c(O)c3)cc12)O[C@H](Cc1ccc(O)c(O)c1)C(=O)O` [salvianolic acid C] was run?
**A.** 91 µM

**Q.** For `O=C(/C=C/c1ccc(O)c(O)c1/C=C/c1ccc(O)c(O)c1)O[C@H](Cc1ccc(O)c(O)c1)C(=O)O` [salvianolic acid A], which IC50 (3CL^pro; [3]) is on record?
**A.** 4.8 µM

**Q.** `O=C(/C=C/c1ccc(O)c2c1[C@H](C(=O)O)[C@@H](c1ccc(O)c(O)c1)O2)O[C@H](Cc1ccc(O)c(O)c1)C(=O)O` [lithospermic acid] was tested. Which IC50 (3CL^pro) did it give?
**A.** 32 µM

**Q.** For `O=C(/C=C/c1ccc(O)c(O)c1)O[C@H](Cc1ccc(O)c(O)c1)C(=O)O` [rosmarinic acid], which IC50 (3CL^pro) is on record?
**A.** 10 µM

**Q.** For `S=C=NCCc1ccccc1` [Compound X05, Phenethyl isothiocyanate], which IC50 (PL^pro [1]) is on record?
**A.** 81 µM

**Q.** What about the “Inhibition of PL^pro labelling (in words)” value (PL^pro [1]) of the same compound?
**A.** incomplete inhibition

**Q.** What about the IC50 (3CL^pro) of the same compound?
**A.** 43 µM

**Q.** And the “Inhibition of 3CL^pro labelling (in words)” value (3CL^pro)?
**A.** incomplete inhibition

**Q.** And the IC50 (PL^pro [2])?
**A.** 44 µM

**Q.** What about the “Inhibition of enzyme activity of PL^pro (in words)” value (PL^pro [2]) of the same compound?
**A.** inhibited enzyme activity
